Assay results published in patent publication US6589976B1, “Utilizing spirocyclic phenyl keto-enols as pesticides and herbicides” (Bayer Aktiengesellschaft, priority 1997, dated 2003).

How the values were obtained:
[1] = system: greenhouse spider mite (Tetranychus urticae); test: Tetranychus-Test (OP-resistant/dipped Treatment); type: in vivo; conditions: active compound concentration of 0.01%, after 7 days
Experimental: Tetranychus-Test (OP-resistant/dipped Treatment)
(§1) Solvent: 3 parts by weight of dimethylformamide
(§2) Emulsifier: 1 part by weight of alkylaryl polyglycol ether
(§3) To produce a suitable preparation of active compound, 1 part by weight of active compound is mixed with the stated amount of solvent and the stated amount of emulsifier, and the concentrate is diluted with water to the desired concentration.
Bean plants (Phaseolus vulgaris), which are heavily infested by all stages of the greenhouse spider mite (Tetranychus urticae) are dipped into a preparation of active compound of the desired concentration.
After the desired period of time, the activity in % is determined. 100% means that all spider mites have been killed, 0% means that none of the spider mites have been killed.

[2] = system: caterpillars of the owlet moth (Spodoptera frugiperda); test: Spodoptera Frugiperda-Test (cabbage leaves dipped); type: in vivo; conditions: active compound concentration of 0.1%, after 7 days
Experimental: Spodoptera Frugiperda-Test
(§4) Solvent: 7 parts by weight of dimethylformamide
as §2, §3
Cabbage leaves (Brassica oleracea) are treated by being dipped into the preparation of active compound of the desired concentration and populated with caterpillars of the owlet moth (Spodoptera frugiperda) while the leaves are still moist.
After the desired period of time, the kill in % is determined. 100%, means that all caterpillars have been killed; 0% means that none of the caterpillars have been killed.

[3] = system: fruit tree red spider mite (Panonychus ulmi); test: Panonychus-Test (plum trees sprayed); type: in vivo; conditions: active compound concentration of 0.02%, after 7 days
Experimental: as §1, §2
To produce a suitable preparation of active compound, 1 part by weight of active compound is mixed with the stated amount of solvent and the stated amount of emulsifier, and the concentrate is diluted with emulsifier-containing water to the desired concentration.
Plum trees (Prunus domestica), of a height of approximately 30 cm which are heavily infested by all development stages of the fruit tree red spider mite (Panonychus ulmi) are sprayed with a preparation of active compound of the desired concentration.
After the desired period of time, the effect in % is determined. 100% means that all spider mites have been killed, 0% means that none of the spider mites have been killed.

[4] = system: larvae of the mustard beetle (Phaedon cochleariae); test: Phaedon-Larvae-Test (cabbage leaves dipped); type: in vivo; conditions: active compound concentration of 0.1%, after 7 days
Experimental: as §4, §2, §3
After the desired period of time, the kill in % was determined. 100% means that all beetle larvae have been killed, 0% means that none of the beetle larvae have been killed.

[5] = system: peach affids (Myzus persicae); test: Myzus-Test (cabbage leaves dipped); type: in vivo; conditions: active compound concentration of 0.1%, after 6 days
Experimental: as §4, §2, §3
Cabbage leaves (Brassica oleracea), which are heavily infested by peach affids (Myzus persicae) are treated by being dipped into the preparation of active compound of the desired concentration.
After the desired period of time, the kill in per cent is determined. 100% means that all affids have been killed; 0% means that none of the affids have been killed.

Lucilia cuprina-Larvae = test: Blowfly-Larvae-Test/Development-inhibitory Action; type: in vivo; conditions: active compound concentration of 1000 ppm, read-out: activity (inhibition of fly emergence)
Experimental: Blowfly-Larvae-Test/Development-inhibitory Action
Test animals: Lucilia cuprina-Larvae
Solvent: dimethyl sulphoxide
20 mg of active compound are dissolved in 1 ml of dimethyl sulphoxide, more dilute concentrations are prepared by dilution with distilled H2O.
Approximately 20 Lucilia cuprina larvae are introduced into a test tube which contains approximately 1 cm^3 of horse meat and 0.5 ml of the preparation of active compound to be tested. After 24 and 48 hours, the efficacy of the preparation of active compound is determined. The test tubes are transferred into beakers whose bottom is covered with sand. After a further 2 days, the test tubes are removed, and the pupae are counted.
The activity of the preparation of active compound is assessed by the number of flies which have emerged after 1.5 times the development time of an untreated control. 100% means that no flies have emerged; 0% means that all the flies have emerged normally.

[6] = system: larvae of the green rice leaf hoppers (Nepliotettix cincticeps); test: Nephotettix-Test (rice seedlings dipped); type: in vivo, Nephotettix cincticeps; conditions: active compound concentration of 0.1%, after 6 days
Experimental: Solvent: 7 parts by weight dimethylformamide
as §2, §3
Rice seedlings (Oryza sativa) are treated by being dipped into the preparation of active compound of the desired concentration and populated with larvae of the green rice leaf hoppers (Nepliotettix cincticeps) while the seedlings are still moist.
After the desired period of time, the kill in % is determined. 100% means that all leaf hoppers have been killed, 0% means that none of the leaf hoppers have been killed.

CON=C1CCC2(CC1)OC(=O)C(c1c(C)cc(C)cc1C)=C2OC(=O)C(C)(C)C (centres unmarked) [Example I-2-b-2]
100%: kill [1] | kill [2] | effect (spider mites killed) [3] | kill [4] | kill [5] | inhibition at 1000 ppm (Lucilia cuprina-Larvae)

CON=C1CCC2(CC1)OC(=O)C(c1c(C)cc(C)cc1C)=C2O (centres unmarked) [Example I-2-a-2]
100%: kill [1] | kill [6]
